# Measurements reported in US20130177609A1, “Compositions and Methods for Increasing Bioavailability of Topical Ophthalmic Drugs” (priority 2008, published 2013).
# Like-named read-outs stand apart in the source and are kept apart here.
# Assay: Example 2: ocular tissue pharmacokinetics after topical dose, decreasing dose volume at same total amount of drug
# Format: in vivo, New Zealand Composite pigmented rabbits
# Details: for DNAUC / AUC(0-t) / Cmax / Tmax: topical ocular; for exposure (absolute Cmax and AUC): constant 10 μg dose, varying volume/concentration
# Protocol: This study was carried out using a non-crossover design involving a total of 84 New Zealand Composite pigmented rabbits arbitrarily divided into 3 groups of 28 rabbits each. Three compositions were prepared as aqueous suspensions substantially as disclosed above comprising 1, 0.33, and 0.1 mg/mL BOL-303242-X, respectively. Each composition also contained 100 mg/mL PEG 3350 and 10 mg/mL Tween® 80. The compositions were shipped to the test site as a ready-to-use suspension.
# The test compositions were administered so as to achieve 10-μg topical dosed drug amount in each eye of all the study animals. The concentration of the composition and the instillation volume were varied between the three study groups to keep the dosed drug amount constant. Animals in Group 1 received 10 μL/eye of the 1.0 mg/mL composition; animals comprising Groups 2 and 3 received 30 μL/eye of the 0.33 mg/mL composition and 100 μL/eye of the 0.1 mg/mL composition, respectively.
# At predetermined time intervals after dosing, rabbits (four per collection time) were euthanized after anesthetization and the eyes enucleated and dissected. Tear, aqueous humor, conjunctiva, cornea, and iris/ciliary body samples were collected from both eyes of each animal and stored frozen until being shipped on dry ice to the analytical laboratory. Samples were collected at 0.083, 0.25, 0.5, 1, 2, 4, and 6 hours after dosing. BOL-303242-X concentrations in the above tissues and matrices were determined by LC/MS/MS. For the purpose of calculating mean concentrations, a value of ½ the LLQ was assigned to all samples with concentrations below the LLQ (BLQ). In addition, any sample with a measured concentration that was more than 10-fold higher than the median concentration in the respective sample pool was considered an outlier, and was not included in any calculations. Similarly, concentrations that were 10-fold lower than the median value and below the LLQ were also considered to be outliers. The number of study samples that were determined to be outliers using the above criteria for each tissue/matrix in this study was: tears=14/144; conjunctiva=3/144; cornea=1/144; aqueous humor 2/144 and iris=4/144 samples.
# Pharmacokinetic analysis of the composite concentration-versus-time data was performed using non-compartmental methods (WinNonlin version 5.2). Due to the destructive nature of the sampling regimen employed in this study, average composite data were used in the pharmacokinetic analysis.
# [1] = Conjunctiva, 10 μL/eye of 1 mg/mL (10 μg)
# [2] = Conjunctiva, 30 μL/eye of 0.33 mg/mL (10 μg)
# [3] = Conjunctiva, 100 μL/eye of 0.1 mg/mL (10 μg)
# [4] = Cornea, 10 μL/eye of 1 mg/mL (10 μg)
# [5] = Cornea, 30 μL/eye of 0.33 mg/mL (10 μg)
# [6] = Cornea, 100 μL/eye of 0.1 mg/mL (10 μg)
# [7] = Iris/Ciliary Body, 30 μL/eye of 0.33 mg/mL (10 μg)
# [8] = Iris/Ciliary Body, 100 μL/eye of 0.1 mg/mL (10 μg)
# [9] = New Zealand Composite pigmented, rabbit, aqueous humor, topical or ocular, 10 ug, 10 μL/eye of 1 mg/mL (10 μg)
# [10] = New Zealand Composite pigmented, rabbit, aqueous humor, topical or ocular, 10 ug, 30 μL/eye of 0.33 mg/mL (10 μg)
# [11] = New Zealand Composite pigmented, rabbit, aqueous humor, topical or ocular, 10 ug, 100 μL/eye of 0.1 mg/mL (10 μg)
# [12] = New Zealand Composite pigmented, rabbit, conjunctiva, topical or ocular, 10 ug, 10 μL/eye of 1 mg/mL (10 μg)
# [13] = New Zealand Composite pigmented, rabbit, conjunctiva, topical or ocular, 10 ug, 30 μL/eye of 0.33 mg/mL (10 μg)
# [14] = New Zealand Composite pigmented, rabbit, conjunctiva, topical or ocular, 10 ug, 100 μL/eye of 0.1 mg/mL (10 μg)
# [15] = New Zealand Composite pigmented, rabbit, cornea, topical or ocular, 10 ug, 10 μL/eye of 1 mg/mL (10 μg)
# [16] = New Zealand Composite pigmented, rabbit, cornea, topical or ocular, 10 ug, 30 μL/eye of 0.33 mg/mL (10 μg)
# [17] = New Zealand Composite pigmented, rabbit, cornea, topical or ocular, 10 ug, 100 μL/eye of 0.1 mg/mL (10 μg)
# [18] = New Zealand Composite pigmented, rabbit, iris/ciliary body, topical or ocular, 10 ug, 30 μL/eye of 0.33 mg/mL (10 μg)
# [19] = New Zealand Composite pigmented, rabbit, iris/ciliary body, topical or ocular, 10 ug, 100 μL/eye of 0.1 mg/mL (10 μg)
# [20] = New Zealand Composite pigmented, rabbit, tears, topical or ocular, 10 ug, 10 μL/eye of 1 mg/mL (10 μg)
# [21] = New Zealand Composite pigmented, rabbit, tears, topical or ocular, 10 ug, 30 μL/eye of 0.33 mg/mL (10 μg)
# [22] = New Zealand Composite pigmented, rabbit, tears, topical or ocular, 10 ug, 100 μL/eye of 0.1 mg/mL (10 μg)
# [23] = Tears, 10 μL/eye of 1 mg/mL (10 μg)
# [24] = Tears, 30 μL/eye of 0.33 mg/mL (10 μg)
# [25] = Tears, 100 μL/eye of 0.1 mg/mL (10 μg)
smiles,measurement,setting,value
Cc1ccc2c(NCC(O)(CC(C)(C)c3cc(F)cc4c3OCC4)C(F)(F)F)cccc2n1 (stereo not drawn) [BOL-303242-X],DNAUC,"Aqueous Humor, 10 μL/eye of 1 mg/mL (10 μg)",0.800 ng*hr/g ÷ μg dose
same,DNAUC,"Aqueous Humor, 30 μL/eye of 0.33 mg/mL (10 μg)",0.300 ng*hr/g ÷ μg dose
same,DNAUC,"Aqueous Humor, 100 μL/eye of 0.1 mg/mL (10 μg)",0.700 ng*hr/g ÷ μg dose
same,AUC(0-t),[1],0.742 µg·h/g
same,DNAUC,[1],74.2 ng*hr/g ÷ μg dose
same,AUC(0-t),[2],0.575 µg·h/g
same,DNAUC,[2],57.5 ng*hr/g ÷ μg dose
same,AUC(0-t),[3],0.212 µg·h/g
same,DNAUC,[3],21.2 ng*hr/g ÷ μg dose
same,AUC(0-t),[4],1.01 µg·h/g
same,DNAUC,[4],101 ng*hr/g ÷ μg dose
same,AUC(0-t),[5],1.02 µg·h/g
same,DNAUC,[5],102 ng*hr/g ÷ μg dose
same,AUC(0-t),[6],0.745 µg·h/g
same,DNAUC,[6],74.5 ng*hr/g ÷ μg dose
same,DNAUC,"Iris/Ciliary Body, 10 μL/eye of 1 mg/mL (10 μg)",27.3 ng*hr/g ÷ μg dose
same,AUC(0-t),"Iris/Ciliary Body, 10 μL/eye of 1 mg/mL (10 μg), heavily influenced by 2 animals at 2 hour",0.273 µg·h/g
same,AUC(0-t),[7],0.0206 µg·h/g
same,DNAUC,[7],2.06 ng*hr/g ÷ μg dose
same,AUC(0-t),[8],0.0186 µg·h/g
same,DNAUC,[8],1.86 ng*hr/g ÷ μg dose
same,AUC(0-t),"New Zealand Composite pigmented, rabbit, aqueous humor, topical or ocular, 10 ug, Aqueous Humor, 10 μL/eye of 1 mg/mL (10 μg), read-out: AUC(0-t)",8 ng·h/mL
same,AUC(0-t),"New Zealand Composite pigmented, rabbit, aqueous humor, topical or ocular, 10 ug, Aqueous Humor, 30 μL/eye of 0.33 mg/mL (10 μg), read-out: AUC(0-t)",3 ng·h/mL
same,AUC(0-t),"New Zealand Composite pigmented, rabbit, aqueous humor, topical or ocular, 10 ug, Aqueous Humor, 100 μL/eye of 0.1 mg/mL (10 μg), read-out: AUC(0-t)",7 ng·h/mL
same,Cmax,[9],0.17 ng/mL
same,Tmax,[9],120 min
same,Cmax,[10],0.188 ng/mL
same,Tmax,[10],120 min
same,Cmax,[11],0.286 ng/mL
same,Tmax,[11],120 min
same,Cmax,[12],399 ± 100 ng/g
same,Tmax,[12],4.98 min
same,Cmax,[13],450 ± 269 ng/g
same,Tmax,[13],15 min
same,Cmax,[14],168 ± 101 ng/g
same,Tmax,[14],15 min
same,Cmax,[15],527 ± 213 ng/g
same,Tmax,[15],30 min
same,Cmax,[16],592 ± 297 ng/g
same,Tmax,[16],4.98 min
same,Cmax,[17],452 ± 129 ng/g
same,Tmax,[17],15 min
same,Tmax,"New Zealand Composite pigmented, rabbit, iris/ciliary body, topical or ocular, 10 ug, 10 μL/eye of 1 mg/mL (10 μg)",120 min
same,Cmax,"New Zealand Composite pigmented, rabbit, iris/ciliary body, topical or ocular, 10 ug, 10 μL/eye of 1 mg/mL (10 μg), heavily influenced by 2 animals at 2 hour",262 ng/g
same,Cmax,[18],41.9 ± 37.8 ng/g
same,Tmax,[18],4.98 min
same,Cmax,[19],5.92 ± 7.26 ng/g
same,Tmax,[19],60 min
same,Cmax,[20],247000 ng/g
same,Tmax,[20],15 min
same,Cmax,[21],32000 ng/g
same,Tmax,[21],4.98 min
same,Cmax,[22],7170 ng/g
same,Tmax,[22],15 min
same,AUC(0-t),[23],60.2 µg·h/g
same,DNAUC,[23],6020 ng*hr/g ÷ μg dose
same,AUC(0-t),[24],18.2 µg·h/g
same,DNAUC,[24],1820 ng*hr/g ÷ μg dose
same,AUC(0-t),[25],7.74 µg·h/g
same,DNAUC,[25],774 ng*hr/g ÷ μg dose
same,exposure (absolute Cmax and AUC),"cornea, iris/ciliary body and aqueous humor",remained relatively constant
same,ocular bioavailability,dose volume decreased while drug concentration in the formulation increased proportionally,increases
same,exposure (absolute Cmax and AUC),tears,increases as the concentration of the drug in the dose volume increases
